Results from patent US12383498B2, “Amlodipine formulations” (Azurity Pharmaceuticals, Inc., priority 2018, dated 2025).

How the values were obtained:
[1] = Soluble amlodipine in isolated solids (purified water, pH 5.3, tumbled 66 hours, HPLC); type: physicochemical; settings: pH 5.3, aqueous buffer, thermodynamic from solid
Procedure: Batches 1A-1F had different amlodipine content in the supernatants than the amlodipine besylate control indicating formation of new salt forms. […] Aliquots of each solid were weighed into 15 mL polypropylene centrifuge tubes in duplicate except for batch 1A which was a single determination. Purified water was added to each tube and the pH of the resulting suspension adjusted to 5.3 with anhydrous citric acid or anhydrous sodium citrate powder as needed. A control was also prepared in duplicate containing only purified water and amlodipine besylate at pH 5.3. The tubes were capped, covered in foil to block light, and allowed to tumble end-over-end at ambient temperature for 66 hours. The suspensions were then filtered through 0.45 micron nylon filters and the resulting filtrates analyzed by HPLC for amlodipine content.

[2] = Amlodipine content in supernatant of amlodipine salt batches (0.45 micron filtration, HPLC); type: physicochemical; settings: batches prepared by mixing; ~10-fold molar salt forming agent; polysorbate 80 in water
Procedure: Amlodipine salts were prepared according to the formulas in Table 1 and Table 2. The formulations in Table 1 were prepared by adding purified water to a glass container containing a magnetic stir-bar and mixing with an external magnetic stir-plate. The polysorbate 80 was added and allowed to dissolve with mixing for a minimum of 10 minutes. Amlodipine besylate was then added and dispersed in the solution with mixing for a minimum of 10 minutes. The salt forming agent was then added to the suspension and the resulting suspension was mixed for an additional 30 minutes. The amount of the added salt forming agent was approximately 10-fold the amount of amlodipine on a mole basis. A control formulation was prepared to provide a solubility value for amlodipine besylate.
The formulations in Table 2 were prepared by adding purified water to a glass container positioned in an ultrasonic bath. Mixing was initiated with an overhead mixer and impeller. The polysorbate 80 was added and allowed to dissolve with mixing for a minimum of 10 minutes. Amlodipine besylate was then added and dispersed in the solution with mixing for a minimum of 10 minutes. […]
An aliquot of each suspension was filtered through a 0.45 micron nylon filter and the supernatant analyzed by an HPLC method for amlodipine content. […] Detection was by UV absorbance at 237 nm.

Structure (SMILES): CCOC(=O)C1=C(COCCN)NC(C)=C(C(=O)OC)C1c1ccccc1Cl (stereo not drawn) [Control, Amlodipine besylate]
- solubility at 66 h ([1]; Tube 1, pH adjusted to 5.3, ambient temperature): 1080 µg/mL
- solubility at 66 h ([1]; Tube 2, pH adjusted to 5.3, ambient temperature): 1080 µg/mL
- Amlodipine content in supernatant [2]: 4.80 mg/mL
